Assay [1] can be described thus: Passive-Avoidance Anoxic-Induced-Amnesia Test. The assay is classed as in vivo, Swiss-Webster mice. Conditions: vs saline control, active if 30 percent. The source says: Another in vivo test associated with decreased neural function in mammals is the Passive-Avoidance Anoxic-Induced-Amnesia Test. This test is used to determine the attenuation of anoxic induced amnesia in mice treated with drug, as compared to saline treated control animals with no drug.
A shock-motivated, single trial, step-through passive avoidance procedure is used. Groups of 25 Swiss-Webster, middle aged mice (9 months of age) are placed singly in the front chamber of a 2-chamber box and are allowed to voluntarily cross into the rear chamber. As soon as the mouse enters the rear chamber, a door automatically traps the animal and a mild electric shock (0.4 mA for 4 seconds) is delivered to its feet. Following the foot shock, the mice are initially placed in an anoxic environment (0 percent oxygen) for 12 seconds, which quickly induces unconsciousness. They are then placed in a hypoxic environment (15 percent oxygen) for four minutes which prolongs the oxygen deprived state, maintaining unconsciousness. All testing is performed 24 hours later, and in all cases the mice appear fully recovered from the previous anoxic/hypoxic treatment. All test compounds are administered intraperitoneally at a dose of 5-200 mg/kg, 30 minutes prior to training and testing. Control animals are injected intraperitoneally only with saline at 0.01 cc/g of body weight.
The latency to enter the rear chamber is recorded for both training and testing. Presumably, the more the animal remembers being shocked, the greater it will inhibit going into the rear chamber and the higher will be its latency to re-enter. An improvement of 30 percent over saline control scores is considered active.

A short description of a further assay: Hypoxic Survival Test. The assay is classed as in vivo, Royal Hart mice. Conditions: 30 min before hypoxia, survival after 5 min. The method, then:
A useful in vivo test that measures how effectively central nervous system-acting drugs enhance survival in an hypoxic environment, presumably by improving the ratio of energy supply to demand is known as the Hypoxic Survival Test. […] Drugs are tested by intraperitoneally injecting groups of mice 30 minutes prior to placing them in hypoxic mixture and measuring survival. The rationale of this test is that drugs which enhance survival under hypoxic conditions without concomitant, depression or sedative side effects, may do so by enhancing energy metabolism, or by preserving normal brain function under conditions of reduced energy metabolism. Given the dependence of the brain on a constant supply of energy, drugs which have this property may have many far-reaching therapeutic indications, including recovery from stroke and closed head injury, as well as reducing the deleterious effects of the aging central nervous system. […]
A separate group of 20 mice is injected intraperitoneally with saline solution (0.01 cc/g of body weight) and processed as described above.
Still another group of 20 mice is injected intraperitoneally with 0.125 mg/kg of physostigmine and processed as described above.

The subject of assay [2] is Brain-Specific Receptors of Rats (3H-benzodiazepine binding). Description: Inhibition of the binding of 3H-benzodiazepine to brain-specific receptors of rats. Set-up: species or system rat (male albino, Wistar strain). Conditions: 3H-diazepam or 3H-flunitrazepam, rat cortex P2 fraction, pH 7.4, 30 min in ice; test concentration not given. The source says:
Still another test utilized for the determination of anxiolytic activity is the measurement of the ability of a test compound to inhibit the binding of tritiated benzodiazepines to brain-specific receptors of mammals. A modification of the method described by R. F. Squires, et al, Nature, 266, No. 21:732 (April, 1977) and H. Mosler, et al, Science, 198:849 (1977) was employed.
Male albino rats (Wistar strain, weighing 150-200 g each) were used. The test compounds were solubilized in N,N-dimethylformamide, acetic acid, ethanol or hydrochloric acid.
Whole cortex of rats was homogenized gently in 20 volumes of ice-cold 0.32 M sucrose, centrifuged twice at 1000 g for 10 minutes and then recentrifuged at 30,000 g for 20 minutes to produce a crude P2 -synaptosomal fraction. The P2 -fraction was either: (1) resuspended in twice the original volume in hypotonic 50 mM Tris.HCl(pH 7.4), or (2) resuspended in one-half of the original volume in hypotonic 10 mM Tris.HCL (pH 7.4) and frozen (-20° C.) until time of use. Frozen P2 preparations were thawed and resuspended in four times the original homogenizing volume at time of assay.
The binding assay consisted of 300 l of the P2 -fraction suspension (0.2-0.4 mg protein), 100 l of test drug and 100 l of 3H-diazepam 91.5 nM, final concentration) or 3H-flunitrazepam (1.0 nM, final concentration )which was added to 1.5 l of 50 mM Tris.HCl (pH 7.4). Non-specific binding controls and total binding controls received […] of diazepam ([…] final concentration) and 100 l of deionized water, respectively, in place of the test compound. Incubation for 30 minutes proceeded in ice and was terminated by filtration, under vacuum, through glass fiber filters. The filters were washed twice with 5 ml of ice-cold 50 mM Tris.HCl (pH 7.4) and placed in scintillation vials. After drying at 50°-60° C. for 30 minutes, 10 ml of diluent was added and the radioactivity determined in a scintillation counter.
Inhibition of binding was calculated by the difference between total binding and binding in the presence of test compound, divided by the total, times 100. Physiological activity can be shown by a test compound that inhibits 3H-benzodiazepine binding by 12 percent or more.

Assay [3] in a line: Mean arterial blood pressure in spontaneously hypertensive rats. The assay is classed as in vivo, spontaneously hypertensive rats of the Okamoto strain. Conditions: gavage, 100 mg/kg or less, two doses 24 h apart, measured at 28 h; average MABP of rats 160±1.5. The method, then: Certain of the novel compounds of the present invention are active hypotensive agents at non-toxic doses when administered to mammals. These compounds were tested for hypotensive activity by the method of P. S. Chan and D. W. Poorvin, Clinical and Experimental Hypertension, 1 (6), […] (1979). Male, 16 week old spontaneously hypertensive rats of the Okamoto strain having an average mean arterial blood pressure of 160±1.5 mm of mercury are used in the test. One to three rats are used per test compound. A rat is dosed by gavage with a test compound, suspended in 2 percent pre-boiled starch at a concentration of50 mg/ml, at a dose of 100 mg/kg of body weight or less, with 0.9 percent sodium chloride loading at a dose of 25 ml/kg of body weight. A second identical dose of the test compound, without sodium chloride loading is given 24 hours later. At 28 hours after the initial dose the mean arterial blood pressure is measured by the method of Chan and Poorvin vide supra. The procedure is repeated in a second and third rat when necessary.

Data on 1 compound can be found in patent US5169850A, “N-(dialkylamino)methylene)-substituted pyrazolo(1,5-a)-pyrimidine-3-carboxamides and N-(dialkylamino)methylene-substituted-4,5-dihydropyrazolo-(1,5-a)-pyrimi dine-3-carboxamides” (American Cyanamid Company, priority 1991, dated 1992).

What is called % Inhibition is how much of the control response was suppressed. Low readings indicate little suppression, high ones strong suppression.

Structures are written as SMILES.

As to `CN(C)C=NC(=O)c1cnn2c1NCC=C2c1cccc(C(F)(F)F)c1` [N-((Dimethylamino)methylene)-4,5-dihydro-7-(3-(trifluoromethyl)phenylpyrazolo(1,5-a)-pyrimidine-3-carboxamide], the figures for the “% Improvement” value in assay [1] (25 mg/kg i.p.) and in assay [1] (50 mg/kg i.p.) were 49% and 57%, respectively. Further, the “% Survivors” value in “Hypoxic Survival Test” (50 mg/kg i.p.) stood at 75%; in the assay “Hypoxic Survival Test” (100 mg/kg i.p.), 57%. Also, the “% Inhibition” value in assay [2] is 17%. Further, the “MABP/mmHg (no. of rat)” value in assay [3] turned out to be 131 mmHg.
